This passage reports DC50 and IC50 results from patent US12226424B2, “Target protein degradation compounds, their anti-tumor use, their intermediates and use of intermediates” (ShanghaiTech University, priority 2018, dated 2025).

Experiment [1] has as its target T1, ALK protein (Homo sapiens, UniProt Q9UM73). Kind of experiment: Western-blot half degradation concentration (DC50) of ALK protein in H3122 cells. The class given is cell-based. As to conditions: 24 h drug treatment, read-out: DC50 (nM)/ H3122 cell line.
Target sequence in this assay (Q9UM73 with tags, fused parts or gaps): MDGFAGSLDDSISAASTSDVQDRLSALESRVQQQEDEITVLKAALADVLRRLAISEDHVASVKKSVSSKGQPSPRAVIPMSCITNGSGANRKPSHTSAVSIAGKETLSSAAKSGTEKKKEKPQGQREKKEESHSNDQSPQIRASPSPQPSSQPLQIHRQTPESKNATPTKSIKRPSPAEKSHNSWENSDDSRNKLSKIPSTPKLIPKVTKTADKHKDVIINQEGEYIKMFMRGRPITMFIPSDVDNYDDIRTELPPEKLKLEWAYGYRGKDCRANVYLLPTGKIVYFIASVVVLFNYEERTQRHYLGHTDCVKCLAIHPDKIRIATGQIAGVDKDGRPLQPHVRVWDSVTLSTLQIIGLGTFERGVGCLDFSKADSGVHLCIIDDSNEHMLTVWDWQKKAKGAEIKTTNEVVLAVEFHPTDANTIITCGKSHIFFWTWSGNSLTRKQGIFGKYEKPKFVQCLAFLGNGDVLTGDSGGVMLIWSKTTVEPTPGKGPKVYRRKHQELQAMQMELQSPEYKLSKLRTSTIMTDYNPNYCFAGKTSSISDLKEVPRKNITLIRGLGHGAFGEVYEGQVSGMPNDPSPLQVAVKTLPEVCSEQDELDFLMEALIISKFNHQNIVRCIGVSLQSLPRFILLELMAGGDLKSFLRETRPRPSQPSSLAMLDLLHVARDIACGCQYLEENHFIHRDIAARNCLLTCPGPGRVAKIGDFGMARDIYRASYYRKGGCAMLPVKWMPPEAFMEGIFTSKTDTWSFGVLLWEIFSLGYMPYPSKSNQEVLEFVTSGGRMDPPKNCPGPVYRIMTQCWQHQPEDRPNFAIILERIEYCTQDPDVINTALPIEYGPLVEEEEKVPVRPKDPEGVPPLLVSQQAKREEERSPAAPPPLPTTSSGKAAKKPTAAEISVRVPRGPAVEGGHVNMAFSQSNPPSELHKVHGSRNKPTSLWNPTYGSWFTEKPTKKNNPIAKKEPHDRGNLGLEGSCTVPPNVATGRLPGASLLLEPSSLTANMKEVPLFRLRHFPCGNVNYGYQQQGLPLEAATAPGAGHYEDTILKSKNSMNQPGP
Experiment [2] addresses T1, ALK protein. Kind of experiment: Western-blot half degradation concentration (DC50) of ALK protein in SR cells. The class given is cell-based. Particulars: 24 h drug treatment, read-out: DC50 (nM)/ SR cell line. The protocol:
ALK-positive SR cells (human large cell immunoblastic lymphoma) were purchased from the American Type Culture Collection (ATCC); H3122 cells (human non-small cell lung cancer) were from the Shanghai University of Science and Technology Lin Haifan's research group.
The cells used in this present disclosure were cultured in a 37° C. incubator containing 5% CO2.
DC50 (drug concentration corresponding to protein degradation to 50%) calculation: according to the gray value of the corresponding Western blotting band after drug treatment, fitting the relationship curve between drug concentration and gray value to calculate the drug concentration range corresponding to half of the gray value.
Target sequence in this assay (Q9UM73 with tags, fused parts or gaps): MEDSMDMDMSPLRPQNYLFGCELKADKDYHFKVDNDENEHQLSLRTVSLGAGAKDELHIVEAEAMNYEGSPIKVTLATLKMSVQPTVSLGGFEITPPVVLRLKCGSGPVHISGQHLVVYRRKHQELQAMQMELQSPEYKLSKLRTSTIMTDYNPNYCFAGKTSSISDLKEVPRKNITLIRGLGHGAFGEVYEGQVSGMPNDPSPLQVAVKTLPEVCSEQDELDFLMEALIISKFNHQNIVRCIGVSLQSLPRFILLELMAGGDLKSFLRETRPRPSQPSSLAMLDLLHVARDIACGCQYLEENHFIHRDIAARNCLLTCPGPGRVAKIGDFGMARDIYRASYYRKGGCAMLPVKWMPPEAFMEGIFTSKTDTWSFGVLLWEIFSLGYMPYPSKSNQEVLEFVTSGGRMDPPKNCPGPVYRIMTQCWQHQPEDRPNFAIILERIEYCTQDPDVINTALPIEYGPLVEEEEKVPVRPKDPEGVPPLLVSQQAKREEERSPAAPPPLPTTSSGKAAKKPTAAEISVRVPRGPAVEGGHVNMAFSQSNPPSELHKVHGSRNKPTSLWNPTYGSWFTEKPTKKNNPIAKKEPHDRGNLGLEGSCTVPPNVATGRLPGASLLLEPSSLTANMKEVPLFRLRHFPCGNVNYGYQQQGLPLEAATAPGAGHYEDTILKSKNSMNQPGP

The test system of the next experiment is SR cells. Kind of experiment: Half inhibitory concentration (IC50) on ALK-positive SR cell proliferation (CCK-8). The class given is cell-based. Particulars: Homo sapiens; SR cells, 72 h drug treatment, CCK-8; read-out: IC50 (nM)/ SR cell line. In short, it runs like this: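 SR cells seeded at 10,000 cells/well in RPMI1640 and treated with PROTAD compounds at 10 concentrations (top 10 μM, 5-fold dilutions) for 72 h at 37° C, 5% CO2. Viability read by CCK-8 (2 h) at OD450; DMSO as negative control.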

A further experiment has as its system MDA-MB-468 cells. Kind of experiment: Half inhibitory concentration (IC50) on BET-expressing tumor cells, CCK-8, MDA-MB-468. As to conditions: Homo sapiens, 48/72 h, read-out: IC50 (nM)/MDA-MB-468 cell line. In kind it is cell-based. The procedure: (§1) BET-expressing cells MV-4-11 cells (human B granulocytic leukemia cells), MDA-MB-231 cells (human breast cancer cells), MDA-MB-468 cells (human breast cancer cells), MDA-MB-453 Cells (human breast cancer cells), MM1S cells (myeloma (immunoglobulin A lambda), B lymphoblasts) and SR cells (human large cell immunoblast lymphoma) were purchased from the American Type Culture Collection (ATCC).
(§2) The cells used in this present disclosure were cultured in a 37° C. incubator containing 5% CO2. The complete cell culture medium was RPMI 1640/IMDM/DMEM medium with 10% fetal bovine serum, and the final concentrations of penicillin and streptomycin were 100 U/mL, respectively. All cells were tested negative for mycoplasma with mycoplasma detection kit before the experiment.
(§3) Determination of the Half Inhibitory Concentration (IC50) of PROTAD Compounds on Tumor Cells
(§4) MV-411 cells, MM1S cells and SR cells were seeded in 100 μL IMDM/RPMI1640/DMEM complete medium at a density of 15000/10000 cells/well; MDA-MB-231 cells, MDA-MB-468 cells, and MDA-MB453 cells were seeded in 100 μL IMDM/RPMI1640/DMEM complete medium at a density of 3000/5000 cells/well, respectively. 100 μL of the inoculated cells were treated with 0.5 μL diluted PROTAD compounds of the present disclosure to be tested at 10 successively decreasing concentrations (starting at the highest concentration of 10 μM; 5-fold serial dilutions). After the cells were treated with the tested drugs 48/72 h, the cell viability was determined according to the CCK-8 reagent manual. The negative control was DMSO, and the positive control was a commercial inhibitor. After CCK-8 treatment for 2 h, the value of O.D.450 was measured using a microplate reader.

The subject of the next experiment is MDA-MB-231 cells. Kind of experiment: Half inhibitory concentration (IC50) on BET-expressing tumor cells, CCK-8, MDA-MB-231. In kind it is cell-based. Particulars: Homo sapiens, 48/72 h, read-out: IC50 (nM)/MDA-MB-231 cell line. The protocol:
as §1, §2, §3, §4

The subject of a further experiment is MDA-MB-453 cells. Kind of experiment: Half inhibitory concentration (IC50) on BET-expressing tumor cells, CCK-8, MDA-MB-453. Particulars: 48/72 h, read-out: IC50 (nM)/MDA-MB-453 cell line. The class given is cell-based, human. The procedure:
as §1, §2, §3, §4

In the next experiment the test system is MV-4-11 cells. Kind of experiment: Half inhibitory concentration (IC50) on BET-expressing tumor cells, CCK-8, MV-4-11. Particulars: Homo sapiens, MV4-11, read-out: IC50 (nM)/MV-4-11 cell line, MV-4-11 cells, 48/72 h, CCK-8.
The test system of the next experiment is MM1S cells. Kind of experiment: Half inhibitory concentration (IC50) on BET-expressing tumor cells, CCK-8, MM1S. The class given is cell-based. Particulars: Homo sapiens, MM1.S, 48/72 h, read-out: IC50 (nM)/MM1S cell line. The protocol: as §1, §2, §3, §4
Setting [3] is: Homo sapiens, MDA-MB-453, MDA-MB-453 cells.

Like-named read-outs stand apart in the source and are kept apart here.

In the case of `COc1cc(N2CCC(NC(=O)CCCCCSc3cccc4c3C(=O)N(C3CCC(=O)NC3=O)C4=O)CC2)ccc1Nc1ncc(Cl)c(Nc2ccccc2P(C)(C)=O)n1` (stereo not shown) [SIAIS164141, N-(1-(4-((5-chloro-4-((2-(dimethylphosphoryl)phenyl)amino)pyrimidin-2-yl)amino)-3-methoxyphenyl)piperidin-4-yl)-6-((2-(2,6-dioxopiperidin-3-yl)-1,3-dioxoisoindolin-4-yl)thio)hexanamide], the DC50 was 50 nM at ALK protein [1] and 1 to 50 nM on ALK protein [2]. The IC50 with SR cells came to 3.2 ± 2.4 nM.

With `Cc1sc2c(c1C)C(c1ccc(Cl)cc1)=N[C@@H](CC(=O)NCCCSc1cccc3c1C(=O)N(C1CCC(=O)NC1=O)C3=O)c1nnc(C)n1-2` (stereo partly drawn) [SIAIS171013, 2-((S)-4-(4-chlorophenyl)-2,3,9-trimethyl-6H-thieno[3,2-f][1,2,4]triazolo[4,3-a][1,4]diazepin-6-yl)-N-(3-((2-(2,6-dioxopiperidin-3-yl)-1,3-dioxoisoindolin-4-yl)thio)propyl)acetamide], the IC50 was > 300 nM in the experiment on MDA-MB-468 cells; > 2820 nM with MDA-MB-231 cells; 1090 nM with MDA-MB-453 cells (setting [3]); 8.6 ± 8.7 nM with MV-4-11 cells; 22.6 nM in the experiment with MM1S cells.

`Cc1sc2c(c1C)C(c1ccc(Cl)cc1)=N[C@@H](CC(=O)NCCSc1cccc3c1C(=O)N(C1CCC(=O)NC1=O)C3=O)c1nnc(C)n1-2` (stereo partly drawn) [SIAIS171036, 2-((S)-4-(4-chlorophenyl)-2,3,9-trimethyl-6H-thieno[3,2-f][1,2,4]triazolo[4,3-a][1,4]diazepin-6-yl)-N-(2-((2-(2,6-dioxopiperidin-3-yl)-1,3-dioxoisoindolin-4-yl)thio)ethyl)acetamide]: the IC50 in the experiment on MDA-MB-468 cells came to 100 ± 21 nM; in the experiment with MDA-MB-231 cells it was 242 ± 65 nM; with MDA-MB-453 cells (setting [3]), 163 nM; in the experiment with MDA-MB-453 cells (MDA-MB-453 cells) it was 214 nM; with MV-4-11 cells it was 4.5 ± 3.2 nM; in the experiment with MM1S cells, 8.6 nM.

Regarding `Cc1sc2c(c1C)C(c1ccc(Cl)cc1)=N[C@@H](CC(=O)NCCCCCCSc1cccc3c1C(=O)N(C1CCC(=O)NC1=O)C3=O)c1nnc(C)n1-2` (stereo partly drawn) [SIAIS171039, 2-((S)-4-(4-chlorophenyl)-2,3,9-trimethyl-6H-thieno[3,2-f][1,2,4]triazolo[4,3-a][1,4]diazepin-6-yl)-N-(6-((2-(2,6-dioxopiperidin-3-yl)-1,3-dioxoisoindolin-4-yl)thio)hexyl)acetamide], the IC50 with MDA-MB-468 cells amounted to 92 ± 43 nM; in the experiment with MDA-MB-231 cells, 98 ± 82 nM; in the experiment with MDA-MB-453 cells (setting [3]), 167 nM; in the experiment on MDA-MB-453 cells (MDA-MB-453 cells), 162 nM; in the experiment on MV-4-11 cells it was 2.7 ± 2.5 nM; with MM1S cells, 0.82 nM.

Turning to `Cc1sc2c(c1C)C(c1ccc(Cl)cc1)=N[C@@H](CC(=O)NCCCCCCCSc1cccc3c1C(=O)N(C1CCC(=O)NC1=O)C3=O)c1nnc(C)n1-2` (stereo partly drawn) [SIAIS171040, 2-((S)-4-(4-chlorophenyl)-2,3,9-trimethyl-6H-thieno[3,2-f][1,2,4]triazolo[4,3-a][1,4]diazepin-6-yl)-N-(7-((2-(2,6-dioxopiperidin-3-yl)-1,3-dioxoisoindolin-4-yl)thio)heptyl)acetamide], the IC50 was 46 ± 12 nM in the experiment with MDA-MB-468 cells; 69 ± 38 nM with MDA-MB-231 cells; 85 nM in the experiment on MDA-MB-453 cells (setting [3]); 75.7 nM with MDA-MB-453 cells (MDA-MB-453 cells); 2.2 ± 2 nM in the experiment on MV-4-11 cells; 2.78 nM in the experiment on MM1S cells.

As for `Cc1sc2c(c1C)C(c1ccc(Cl)cc1)=N[C@@H](CC(=O)NCCCCCCCCSc1cccc3c1C(=O)N(C1CCC(=O)NC1=O)C3=O)c1nnc(C)n1-2` (stereo partly drawn) [SIAIS171049, 2-((S)-4-(4-chlorophenyl)-2,3,9-trimethyl-6H-thieno[3,2-f][1,2,4]triazolo[4,3-a][1,4]diazepin-6-yl)-N-(8-((2-(2,6-dioxopiperidin-3-yl)-1,3-dioxoisoindolin-4-yl)thio)octyl)acetamide], the IC50 came to 1730 ± 1650 nM in the experiment on MDA-MB-468 cells; 645 ± 249 nM with MDA-MB-231 cells; 166 nM with MDA-MB-453 cells (setting [3]); 237 nM in the experiment on MDA-MB-453 cells (MDA-MB-453 cells); 7.2 ± 9.2 nM with MV-4-11 cells; 3.06 nM in the experiment on MM1S cells.

Consider `Cc1sc2c(c1C)C(c1ccc(Cl)cc1)=N[C@@H](CC(=O)NCCSc1cccc3c1CN(C1CCC(=O)NC1=O)C3=O)c1nnc(C)n1-2` (stereo partly drawn) [SIAIS171138, 2-((S)-4-(4-chlorophenyl)-2,3,9-trimethyl-6H-thieno[3,2-f][1,2,4]triazolo[4,3-a][1,4]diazepin-6-yl)-N-(2-((2-(2,6-dioxopiperidin-3-yl)-1-oxoisoindolin-4-yl)thio)ethyl)acetamide], for which the IC50 in the experiment with MDA-MB-468 cells is > 1740 nM; in the experiment with MDA-MB-231 cells, > 10000 nM; with MDA-MB-453 cells (setting [3]), 2630 nM; in the experiment with MDA-MB-453 cells (MDA-MB-453 cells) it was 2800 nM; in the experiment with MV-4-11 cells, 8.6 ± 9.1 nM; with MM1S cells, 3.1 nM.

In the case of `Cc1sc2c(c1C)C(c1ccc(Cl)cc1)=N[C@@H](CC(=O)NCCCSc1cccc3c1CN(C1CCC(=O)NC1=O)C3=O)c1nnc(C)n1-2` (stereo partly drawn) [SIAIS171139, 2-((S)-4-(4-chlorophenyl)-2,3,9-trimethyl-6H-thieno[3,2-f][1,2,4]triazolo[4,3-a][1,4]diazepin-6-yl)-N-(3-((2-(2,6-dioxopiperidin-3-yl)-1-oxoisoindolin-4-yl)thio)propyl)acetamide], the IC50 is > 10000 nM with MDA-MB-468 cells; > 10000 nM in the experiment on MDA-MB-231 cells; 452 nM in the experiment on MDA-MB-453 cells (setting [3]); 1.1 ± 0.6 nM in the experiment with MV-4-11 cells; 2.03 nM with MM1S cells.

For `Cc1sc2c(c1C)C(c1ccc(Cl)cc1)=N[C@@H](CC(=O)NCCCCCCCSc1cccc3c1CN(C1CCC(=O)NC1=O)C3=O)c1nnc(C)n1-2` (stereo partly drawn) [SIAIS171144, 2-((S)-4-(4-chlorophenyl)-2,3,9-trimethyl-6H-thieno[3,2-f][1,2,4]triazolo[4,3-a][1,4]diazepin-6-yl)-N-(7-((2-(2,6-dioxopiperidin-3-yl)-1-oxoisoindolin-4-yl)thio)heptyl)acetamide], the IC50 with MDA-MB-468 cells worked out at 9.6 ± 2.9 nM; in the experiment on MDA-MB-231 cells, 55 ± 31 nM; with MDA-MB-453 cells (setting [3]) it was 52.3 nM; with MDA-MB-453 cells (MDA-MB-453 cells) it was 63.9 nM; in the experiment with MV-4-11 cells, 0.9 ± 0.8 nM; with MM1S cells it was 0.7 nM.

Consider `Cc1sc2c(c1C)C(c1ccc(Cl)cc1)=N[C@@H](CC(=O)NCCCCCCCCSc1cccc3c1CN(C1CCC(=O)NC1=O)C3=O)c1nnc(C)n1-2` (stereo partly drawn) [SIAIS171145, 2-((S)-4-(4-chlorophenyl)-2,3,9-trimethyl-6H-thieno[3,2-f][1,2,4]triazolo[4,3-a][1,4]diazepin-6-yl)-N-(8-((2-(2,6-dioxopiperidin-3-yl)-1-oxoisoindolin-4-yl)thio)octyl)acetamide], for which the IC50 came to 948 ± 241 nM in the experiment with MDA-MB-468 cells; 537 ± 148 nM in the experiment with MDA-MB-231 cells; 135 nM in the experiment with MDA-MB-453 cells (setting [3]); 222 nM in the experiment with MDA-MB-453 cells (MDA-MB-453 cells); 2 ± 1.8 nM in the experiment on MV-4-11 cells; 1.2 nM in the experiment on MM1S cells.

As to `COc1cc(N2CCN(C(=O)CCCCCSc3cccc4c3C(=O)N(C3CCC(=O)NC3=O)C4=O)CC2)ccc1Nc1ncc(Cl)c(Nc2ccccc2P(C)(C)=O)n1` (stereo not shown) [SIAIS1197121, 4-((6-(4-(4-((5-chloro-4-((2-(dimethylphosphoryl)phenyl)amino)pyrimidin-2-yl)amino)-3-methoxyphenyl)piperazin-1-yl)-6-oxohexyl)thio)-2-(2,6-dioxopiperidin-3-yl)isoindoline-1,3-dione], the DC50 on ALK protein [1] is 500 nM; at ALK protein [2] it was 50 to 500 nM. Moreover, in the experiment with SR cells, the IC50 is 7.4 ± 4.8 nM.
